For one assay, the target named is T1, P2X7R point mutant F108C (Homo sapiens, UniProt Q99572, F108C/I21V/M24R/N16P/N25R/Q22R/R20V/S23N/T19I/Y26L).
T1 construct: expressed in transfected cells; host or cells: Xenopus laevis oocytes (cRNA injection)
The assay can be described thus: cell-based.

Assay [1] addresses T2, chimeric P2X7R with left flipper 280–284 of P2X4 (Homo sapiens, UniProt Q99572, D280T/I21V/K281R/M24R/N16P/N25R/N284E/Q22R/R20V/S23N/T19I/T282D/T283V/Y26L).
T2 sequence (Q99572 1-595 N16P/T19I/R20V/I21V/Q22R/S23N/M24R/N25R/Y26L/D280T/K281R/T282D/T283V/N284E): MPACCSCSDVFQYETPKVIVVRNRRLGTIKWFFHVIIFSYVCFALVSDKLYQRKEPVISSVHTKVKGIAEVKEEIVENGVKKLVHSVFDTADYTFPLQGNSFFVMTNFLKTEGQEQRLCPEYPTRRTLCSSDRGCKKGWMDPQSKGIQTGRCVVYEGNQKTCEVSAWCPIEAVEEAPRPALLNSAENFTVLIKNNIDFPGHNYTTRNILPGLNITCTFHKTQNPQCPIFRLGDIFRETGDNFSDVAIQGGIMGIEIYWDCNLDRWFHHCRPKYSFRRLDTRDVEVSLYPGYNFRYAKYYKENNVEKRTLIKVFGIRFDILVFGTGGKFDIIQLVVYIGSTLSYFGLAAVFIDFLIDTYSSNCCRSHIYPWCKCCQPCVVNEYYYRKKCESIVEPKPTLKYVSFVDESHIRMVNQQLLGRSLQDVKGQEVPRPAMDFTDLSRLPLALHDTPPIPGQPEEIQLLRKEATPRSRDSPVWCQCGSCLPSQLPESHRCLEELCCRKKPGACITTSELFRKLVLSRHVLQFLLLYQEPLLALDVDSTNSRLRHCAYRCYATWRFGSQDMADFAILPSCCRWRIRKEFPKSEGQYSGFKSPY
The assay can be described thus: cell-based.
Procedure: (§1) The production of the correct mutations and absence of coding errors was determined by DNA sequencing (Automated ABI Sequencing Service, University of Leicester, UK). cRNA was generated for the mutants and 50 nl (50 ng) was injected into manually defoliculated stage V Xenopus laevis oocytes using an Inject+Matic microinjector (J.A. Gabay, Inject+Matic, Geneva, Switzerland). Injected oocytes were stored at 16°C in ND96 buffer [in millimolar concentrations, NaCl 96, KCl 2, CaCl2 1.8, MgCl2 1, sodium pyruvate 5, and HEPES 5 (pH 7.6) supplemented with 50 μg/ml gentamycin and 50 μg/ml tetracycline]. Three to seven days postinjection two-electrode voltage clamp recordings were made from oocytes bathed in divalent-free ND96 buffer (in millimolar concentrations, NaCl 96, KCl 2, sodium pyruvate 5, HEPES 5, and 0.1 flufenamic acid, pH 7.6). Oocytes were voltage clamped at a holding potential of −60 mV with a GeneClamp500B amplifier (Molecular Devices).
(§2) Inhibition by the antagonists was expressed as the percentage of the peak current amplitude of an EC90 concentration of ATP recorded before the application of antagonist (ATP gave reproducible responses to ATP in the absence of antagonist). Inhibition curves were fitted with the Hill equation (variable slope) using GraphPad Prism 6 (GraphPad Software, San Diego, CA). […] Individual concentration-response curves were generated for individual experiments, and statistical analysis was carried out on the data generated. […] Data are shown as mean ± S.E.M. In all cases n ≥ 3 for all data points.

The next assay deals with T3, P2X7R point mutant M105A (Homo sapiens, UniProt Q99572, I21V/M105A/M24R/N16P/N25R/Q22R/R20V/S23N/T19I/Y26L).
T3 construct: expressed in transfected cells; host or cells: Xenopus laevis oocytes (cRNA injection)
Nature of the assay: Two-electrode voltage clamp of ATP-evoked currents in Xenopus oocytes. Particulars: EC90 ATP, mean ± S.E.M. In kind it is cell-based. For orientation: Two-electrode voltage clamp is typically applied to oocytes expressing channels or transporters.

In another assay the target is T4, P2X7R point mutant F95A (Homo sapiens, UniProt Q99572, F95A/I21V/M24R/N16P/N25R/Q22R/R20V/S23N/T19I/Y26L).
T4 construct: expressed in transfected cells; host or cells: Xenopus laevis oocytes (cRNA injection)
Nature of the assay: cell-based.

The next assay deals with T5, P2X7R point mutant Y93A (Homo sapiens, UniProt Q99572, I21V/M24R/N16P/N25R/Q22R/R20V/S23N/T19I/Y26L/Y93A).
T5 construct: expressed in transfected cells; host or cells: Xenopus laevis oocytes (cRNA injection)
The assay can be described thus: Two-electrode voltage clamp of ATP-evoked currents in Xenopus oocytes. Particulars: EC90 ATP, mean ± S.E.M. In kind it is cell-based.

In the next assay the target is T6, P2X7R point mutant T90V (Homo sapiens, UniProt Q99572, I21V/M24R/N16P/N25R/Q22R/R20V/S23N/T19I/T90V/Y26L).
T6 construct: expressed in transfected cells; host or cells: Xenopus laevis oocytes (cRNA injection)
Described as above. Conditions: EC90 ATP, mean ± S.E.M. The format is cell-based.

Another assay has as its target T7, P2X7R point mutant P96A (Homo sapiens, UniProt Q99572, I21V/M24R/N16P/N25R/P96A/Q22R/R20V/S23N/T19I/Y26L).
T7 construct: expressed in transfected cells; host or cells: Xenopus laevis oocytes (cRNA injection)
Described as above. The format is cell-based. Conditions: EC90 ATP, mean ± S.E.M.

Assay [2] addresses T8, chimeric P2X7/1 receptor 122–128 (Homo sapiens, UniProt Q99572, DEL124-124/I21V/L128I/M24R/N16P/N25R/Q22R/R125E/R126G/R20V/S23N/T127G/T19I/Y122H/Y26L).
T8 construct: expressed in transfected cells; host or cells: Xenopus laevis oocytes (cRNA injection)
T8 sequence (Q99572 with tags, fused parts or gaps N16P/T19I/R20V/I21V/Q22R/S23N/M24R/N25R/Y26L/Y122H/DEL124-124/R125E/R126G/T127G/L128I): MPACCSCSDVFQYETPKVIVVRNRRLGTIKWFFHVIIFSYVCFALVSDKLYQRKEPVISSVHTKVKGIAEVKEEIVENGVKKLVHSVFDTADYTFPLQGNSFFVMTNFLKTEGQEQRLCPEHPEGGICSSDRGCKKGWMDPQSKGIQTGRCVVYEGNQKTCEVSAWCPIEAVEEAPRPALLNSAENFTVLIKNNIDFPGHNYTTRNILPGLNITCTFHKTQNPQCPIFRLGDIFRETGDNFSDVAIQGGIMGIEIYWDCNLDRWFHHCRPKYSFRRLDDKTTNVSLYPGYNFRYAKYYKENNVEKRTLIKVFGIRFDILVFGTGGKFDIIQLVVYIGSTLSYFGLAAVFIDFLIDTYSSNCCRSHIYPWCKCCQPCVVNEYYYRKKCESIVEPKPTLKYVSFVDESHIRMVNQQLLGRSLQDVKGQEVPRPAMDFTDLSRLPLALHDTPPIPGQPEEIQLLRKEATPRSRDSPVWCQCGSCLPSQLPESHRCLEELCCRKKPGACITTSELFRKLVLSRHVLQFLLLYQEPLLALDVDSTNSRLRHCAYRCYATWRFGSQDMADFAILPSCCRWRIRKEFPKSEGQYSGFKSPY
Described as above. The format is cell-based.
Procedure: (§3) Additional point mutants were made using the QuikChange mutagenesis kit (Stratagene California, La Jolla, CA). The production of the correct mutations and absence of coding errors was determined by DNA sequencing (Automated ABI Sequencing Service, University of Leicester, UK). cRNA was generated for the mutants and 50 nl (50 ng) was injected into manually defoliculated stage V Xenopus laevis oocytes using an Inject+Matic microinjector (J.A. Gabay, Inject+Matic, Geneva, Switzerland). Injected oocytes were stored at 16°C in ND96 buffer [in millimolar concentrations, NaCl 96, KCl 2, CaCl2 1.8, MgCl2 1, sodium pyruvate 5, and HEPES 5 (pH 7.6) supplemented with 50 μg/ml gentamycin and 50 μg/ml tetracycline]. Three to seven days postinjection two-electrode voltage clamp recordings were made from oocytes bathed in divalent-free ND96 buffer (in millimolar concentrations, NaCl 96, KCl 2, sodium pyruvate 5, HEPES 5, and 0.1 flufenamic acid, pH 7.6). Oocytes were voltage clamped at a holding potential of −60 mV with a GeneClamp500B amplifier (Molecular Devices).
as §2

A further assay addresses T9, P2X7-2Nβ receptor (Homo sapiens, UniProt Q99572, I21V/M24R/N16P/N25R/Q22R/R20V/S23N/T19I/Y26L).
T9 construct: expressed in transfected cells; host or cells: Xenopus laevis oocytes (cRNA injection)
The description is as above. In kind it is cell-based. Conditions: inhibition of EC90 ATP response.

The target in a further assay is T10, P2X7R point mutant K297G (Homo sapiens, UniProt Q99572, I21V/K297G/M24R/N16P/N25R/Q22R/R20V/S23N/T19I/Y26L).
T10 construct: expressed in transfected cells; host or cells: Xenopus laevis oocytes (cRNA injection)
The assay is described as above. The format is cell-based. Particulars: EC90 ATP, mean ± S.E.M.

The text below walks through data of article PMC5896373 (Molecular Pharmacology, 2018).

Where “and” joins values, the source holds several entries; their conditions need not be identical. Equal values may be shown once.

T9 sequence (Q99572 whole entry N16P/T19I/R20V/I21V/Q22R/S23N/M24R/N25R/Y26L): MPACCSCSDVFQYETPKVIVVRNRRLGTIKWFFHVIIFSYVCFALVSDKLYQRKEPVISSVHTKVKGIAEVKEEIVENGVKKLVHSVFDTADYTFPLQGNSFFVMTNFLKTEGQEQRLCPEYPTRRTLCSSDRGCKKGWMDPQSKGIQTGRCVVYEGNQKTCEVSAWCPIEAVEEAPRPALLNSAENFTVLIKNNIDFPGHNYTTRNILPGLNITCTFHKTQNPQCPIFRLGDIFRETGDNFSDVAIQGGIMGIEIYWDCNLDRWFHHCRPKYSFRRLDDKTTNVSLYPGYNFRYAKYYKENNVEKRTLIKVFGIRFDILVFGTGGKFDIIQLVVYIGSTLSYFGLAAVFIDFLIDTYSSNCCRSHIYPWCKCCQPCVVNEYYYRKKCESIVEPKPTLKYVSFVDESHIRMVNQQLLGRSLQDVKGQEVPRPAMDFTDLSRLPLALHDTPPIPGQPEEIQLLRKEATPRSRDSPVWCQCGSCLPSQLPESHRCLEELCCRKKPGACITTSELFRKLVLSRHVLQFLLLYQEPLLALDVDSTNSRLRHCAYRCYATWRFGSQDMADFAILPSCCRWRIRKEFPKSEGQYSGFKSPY
T4 sequence (Q99572 whole entry N16P/T19I/R20V/I21V/Q22R/S23N/M24R/N25R/Y26L/F95A): as the sequence (Q99572 whole entry N16P/T19I/R20V/I21V/Q22R/S23N/M24R/N25R/Y26L) above, with F95A counted along it
T10 sequence (Q99572 whole entry N16P/T19I/R20V/I21V/Q22R/S23N/M24R/N25R/Y26L/K297G): as the sequence (Q99572 whole entry N16P/T19I/R20V/I21V/Q22R/S23N/M24R/N25R/Y26L) above, with K297G counted along it
T6 sequence (Q99572 whole entry N16P/T19I/R20V/I21V/Q22R/S23N/M24R/N25R/Y26L/T90V): as the sequence (Q99572 whole entry N16P/T19I/R20V/I21V/Q22R/S23N/M24R/N25R/Y26L) above, with T90V counted along it
T5 sequence (Q99572 whole entry N16P/T19I/R20V/I21V/Q22R/S23N/M24R/N25R/Y26L/Y93A): as the sequence (Q99572 whole entry N16P/T19I/R20V/I21V/Q22R/S23N/M24R/N25R/Y26L) above, with Y93A counted along it
T3 sequence (Q99572 whole entry N16P/T19I/R20V/I21V/Q22R/S23N/M24R/N25R/Y26L/M105A): as the sequence (Q99572 whole entry N16P/T19I/R20V/I21V/Q22R/S23N/M24R/N25R/Y26L) above, with M105A counted along it
T7 sequence (Q99572 whole entry N16P/T19I/R20V/I21V/Q22R/S23N/M24R/N25R/Y26L/P96A): as the sequence (Q99572 whole entry N16P/T19I/R20V/I21V/Q22R/S23N/M24R/N25R/Y26L) above, with P96A counted along it
T1 sequence (Q99572 whole entry N16P/T19I/R20V/I21V/Q22R/S23N/M24R/N25R/Y26L/F108C): as the sequence (Q99572 whole entry N16P/T19I/R20V/I21V/Q22R/S23N/M24R/N25R/Y26L) above, with F108C counted along it
Procedure for P2X7-2Nβ receptor: as §1, §2
Procedure for P2X7R point mutant F108C: (§4) Injected oocytes were stored at 16°C in ND96 buffer [in millimolar concentrations, NaCl 96, KCl 2, CaCl2 1.8, MgCl2 1, sodium pyruvate 5, and HEPES 5 (pH 7.6) supplemented with 50 μg/ml gentamycin and 50 μg/ml tetracycline]. Three to seven days postinjection two-electrode voltage clamp recordings were made from oocytes bathed in divalent-free ND96 buffer (in millimolar concentrations, NaCl 96, KCl 2, sodium pyruvate 5, HEPES 5, and 0.1 flufenamic acid, pH 7.6). Oocytes were voltage clamped at a holding potential of −60 mV with a GeneClamp500B amplifier (Molecular Devices).
as §2
Procedure for P2X7R point mutant F95A: as §4, §2
Procedure for P2X7R point mutant K297G: as §3
(§5) Inhibition by the antagonists was expressed as the percentage of the peak current amplitude of an EC90 concentration of ATP recorded before the application of antagonist (ATP gave reproducible responses to ATP in the absence of antagonist). […]
Procedure for P2X7R point mutant M105A: as §4, §2
Procedure for P2X7R point mutant P96A: as §4, §2
Procedure for P2X7R point mutant T90V: as §3, §5
Procedure for P2X7R point mutant Y93A: as §4, §2

As to `Cl.Clc1cccc(-c2nnnn2Cc2cccnc2)c1Cl.O` [A438079, 3-(5-(2,3-dichlorophenyl)-1H-tetrazol-1-yl)methyl pyridine hydrochloride hydrate], the IC50 – broadly, the concentration needed to halve the response being measured – is 10000 nM against P2X7R point mutant F108C; 31600 nM in [1]; 1580 nM at P2X7R point mutant M105A; over 100000 nM against P2X7R point mutant F95A; 3980 nM at P2X7R point mutant Y93A; 5010 nM on P2X7R point mutant T90V. The IC50 against P2X7R point mutant P96A was 12600 nM; in assay [2] it was 794 nM; against P2X7-2Nβ receptor, 933 nM and 1000 nM; against P2X7R point mutant K297G, 50.1 nM.

In the case of `COc1ccc(CC(=O)NC(N=C(NC#N)Nc2cccc3ncccc23)C(C)(C)C)cc1OC` (stereo not drawn) [A740003, N-[1-[[(cyanoamino)(5-quinolinylamino)methylene]amino]-2,2-dimethylpropyl]-3,4-dimethoxybenzeneacetamide], the IC50 on P2X7R point mutant F108C was 1000 nM; in assay [1] it was 794 nM; against P2X7R point mutant M105A it was 12600 nM; at P2X7R point mutant F95A it was 1000 nM; on P2X7R point mutant Y93A it was 100 nM; at P2X7R point mutant T90V, 398 nM. The IC50 is 316 nM at P2X7R point mutant P96A, 100 nM in [2], 79.4 nM against P2X7-2Nβ receptor and 12.6 nM on P2X7R point mutant K297G. Besides, in assay [2] (chimera 122–128), the “effect on antagonist potency relative to P2X7-2Nβ” value was “no effect”.
